Like-named read-outs stand apart in the source and are kept apart here.
Legend:
TNF-α [1] = assay: In-vitro whole cell assay for TNF-α inhibition (LPS-stimulated PBMC, ELISA); type: cell-based; conditions: TNF-α by ELISA
Procedure: Freshly obtained venous blood was anticoagulated with heparin, diluted with an equal volume of phosphate buffered saline (“PBS”) and placed in a sterile tube or other container. Aliquots (30 mL) of this mixture were transferred to centrifuge tubes, which were underlaid with Ficoll-Hypaque (15 mL). The prepared tubes were centrifuged at 400×g, without braking, for 30 min at room temperature. Approximately ½ to ⅔ of the platelet layer above the mononuclear cell band was removed with a pipette. The majority of the mononuclear cell layer was carefully removed using a pipette and these PBMC's were diluted with PBS and spun at 600×g for 15 min. The resulting PBMC's were washed with another portion of PBS and spun at 400×g for 10 min at room temperature. The recovered pellets were diluted in low endotoxin RPMI/1% FCS culture medium, and gave a cell concentration of 0.5-2.0×10^6 PMBC/ mL. A small volume of the suspension was removed for counting on a hemocytometer and the remaining preparation was centrifuged at 200×g for 15 min at room temperature. The recovered pelleted PMBC's were resuspended in RPMI/1% FCS to a concentration of 1.67×10^6/mL.
To run the assay, the PBMC suspension (180 μL) was transferred to duplicate wells of a 96-well flat-bottom microtiter plate and incubated for 1 h at 37° C. A solution of test compound (10 μL: prepared at 20× the desired final concentration) was added to each well and the plate was incubated for 1 h at 37° C. A solution (10 μL) of LPS in RPMI/1% FCS (200 ng/mL) was added and the wells were incubated overnight at 37° C. The supernate (100 μL) was removed from each well and diluted with RPMI/1% FCS (400 μL). The samples were analyzed for TNF-α using a commercial ELISA kit (Genzyme).

TNF-α [2] = assay: In vivo rodent assay for inhibition of LPS-induced TNF-α production; parameters: species or system Mice (BALB/cJ females); conditions: 10 mg/kg oral; for inhibition in vivo at 10 mg/kg: Mus musculus, po
Procedure: Mice (BALB/cJ females, Jackson Laboratories) or rats (Lewis males, Charles River) were fasted for 30 min. The animals were dosed orally on a mg/kg basis at a range of times prior to being injected intraperitoneally with LPS at 1 mg/kg and returned to their cages for 1 h. Animals were anesthetized by CO2, exsanguinated by cardiac puncture and whole blood collected (0.1-0.7 mL). The blood was allowed to clot and serum was transferred to a centrifuge tube. This sample was centrifuged, and serum was collected, aliquoted and frozen at −80° C. Samples were tested by commercial ELISA's for TNF-α (Endogen for mouse TNF-α and Biosource for rat TNF-α).

[3] = 0.5 h, 0.5 h, read-out: Mouse 10 mg/kg % inhib 0.5 h
[4] = 2 h, 2 h, read-out: Mouse 10 mg/kg % inhib 2 h

COC(=O)c1c(-c2ccc(F)cc2)c(-c2ccncc2)c(C2=CCNCC2)n1C [Cpd 7, 3-(4-Fluorophenyl)-1-methyl-4-(4-pyridinyl)-5-(1,2,3,6-tetrahydro-4-pyridinyl)-1H-pyrrole-2-carboxylic acid methyl ester] was tested, and the IC50 (TNF-α [1]) was 72 nM and the inhibition in vivo at 10 mg/kg (TNF-α [2]; [3]) was 96%.

Work on COC(=O)c1c(-c2ccc(F)cc2)c(-c2ccncc2)c(N2CCNCC2)n1C [Cpd 8, 3-(4-Fluorophenyl)-1-methyl-5-(1-piperazinyl)-4-(4-pyridinyl)-1H-pyrrole-2-carboxylic acid methyl ester] yielded an IC50 (TNF-α [1]) of 33 nM and an inhibition in vivo at 10 mg/kg (TNF-α [2]; [3]) of 73%.

COC(=O)c1c(-c2ccc(F)cc2)c(-c2ccncc2)c(N2CCN(S(C)(=O)=O)CC2)n1C [Cpd 12, 3-(4-Fluorophenyl)-1-methyl-5-[4-(methylsulfonyl)-1-piperazinyl]-4-(4-pyridinyl)-1H-pyrrole-2-carboxylic acid methyl ester] showed an IC50 (TNF-α [1]) of 5860 nM and an inhibition in vivo at 10 mg/kg (TNF-α [2]; [3]) of -29%.

CCNC(=O)N1CCN(c2c(-c3ccncc3)c(-c3ccc(F)cc3)c(C(=O)OC)n2C)CC1 [Cpd 13, 5-[4-[(Ethylamino)carbonyl]-1-piperazinyl]-3-(4-fluorophenyl)-1-methyl-4-(4-pyridinyl)-1H-pyrrole-2-carboxylic acid methyl ester] showed an IC50 (TNF-α [1]) of 2920 nM and an inhibition in vivo at 10 mg/kg (TNF-α [2]; [3]) of -38%.

For COC(=O)c1c(-c2ccc(F)cc2)c(-c2ccncc2)c(/N=C/N(C)C)n1C [Cpd 15], the IC50 (TNF-α [1]) was 5 nM, the inhibition in vivo at 10 mg/kg (TNF-α [2]; [3]) was 6% and the inhibition in vivo at 10 mg/kg (TNF-α [2]; [4]) was -21%.

In the case of CCOC(=O)c1c(-c2ccc(F)cc2)c(-c2ccncc2)c(CCCN2CCOCC2)n1C [Cpd 19, 3-(4-Fluorophenyl)-1-methyl-5-[3-(4-morpholinyl)propyl]-4-(4-pyridinyl)-1H-pyrrole-2-carboxylic acid ethyl ester], the IC50 (TNF-α [1]) is reported as 756 nM and the inhibition in vivo at 10 mg/kg (TNF-α [2]; [3]) is reported as 34%.

COC(=O)C1Cn2cc(-c3ccncc3)c(-c3ccc(F)cc3)c2C1=O (centres unmarked) [Cpd 21, 7-(4-Fluorophenyl)-2,3-dihydro-1-oxo-6-(4-pyridinyl)-1H-pyrrolizine-2-carboxylic acid methyl ester] gave an IC50 (TNF-α [1]) of 29 nM and an inhibition in vivo at 10 mg/kg (TNF-α [2]; [3]) of 44.7%.

Compound O=C1CCn2cc(-c3ccncc3)c(-c3ccc(F)cc3)c21 [Cpd 22, 7-(4-Fluorophenyl)-2,3-dihydro-6-(4-pyridinyl)-1H-pyrrolizin-1-one] has an IC50 (TNF-α [1]) of 138 nM, an inhibition in vivo at 10 mg/kg (TNF-α [2]; [3]) of 63% and an inhibition in vivo at 10 mg/kg (TNF-α [2]; [4]) of -3%.

For COC(=O)C1CCn2c(NCCN3CCOCC3)c(-c3ccncc3)c(-c3ccc(F)cc3)c2C1=O (centres unmarked) [Cpd 23, 1-(4-Fluorophenyl)-5,6,7,8-tetrahydro-3-[[2-(4-morpholinyl)ethyl]amino]-8-oxo-2-(4-pyridinyl)-7-indolizinecarboxylic acid methyl ester], the IC50 (TNF-α [1]) was 77 nM and the inhibition in vivo at 10 mg/kg (TNF-α [2]; [3]) was 71%.

With O=C1CCCn2c(NCCN3CCOCC3)c(-c3ccncc3)c(-c3ccc(F)cc3)c21 [Cpd 24, 1-(4-Fluorophenyl)-6,7-dihydro-3-[[2-(4-morpholinyl)ethyl]amino]-2-(4-pyridinyl)-8(5H)-indolizinone] the IC50 (TNF-α [1]) was 2560 nM and the inhibition in vivo at 10 mg/kg (TNF-α [2]; [3]) was 51%.

With OCc1[nH]cc(-c2ccc(F)cc2)c1-c1ccncc1 [Cpd 26, 4-(4-Fluorophenyl)-3-(4-pyridinyl)-1H-pyrrole-2-methanol] the IC50 (TNF-α [1]) was 101 nM and the inhibition in vivo at 10 mg/kg (TNF-α [2]; [3]) was -72%.

Compound Fc1ccc(-c2cn3c(c2-c2ccncc2)CNCC3)cc1 [Cpd 30, 7-(4-Fluorophenyl)-1,2,3,4-tetrahydro-8-(4-pyridinyl)-pyrrolo[1,2-a]pyrazine] has an IC50 (TNF-α [1]) of 208 nM and an inhibition in vivo at 10 mg/kg (TNF-α [2]; [3]) of 71%.

For CCN1C(=O)c2c(-c3ccncc3)c(-c3ccc(F)cc3)cn2C1=O [Cpd 31, 2-Ethyl-6-(4-fluorophenyl)-7-(4-pyridinyl)-1H-pyrrolo[1,2-c]imidazole-1,3(2H)-dione], the IC50 (TNF-α [1]) was 401 nM and the inhibition in vivo at 10 mg/kg (TNF-α [2]; [3]) was 72%.

Compound CCNC(=O)c1[nH]cc(-c2ccc(F)cc2)c1-c1ccncc1 [Cpd 32, N-Ethyl-4-(4-fluorophenyl)-3-(4-pyridinyl)-1H-pyrrole-2-carboxamide] has an IC50 (TNF-α [1]) of 209 nM and an inhibition in vivo at 10 mg/kg (TNF-α [2]; [3]) of -24%.

Compound Cn1cc(-c2ccncc2)c(-c2ccc(F)cc2)c1C(=O)NCC(=O)c1ccccc1 [Cpd 34, 3-(4-Fluorophenyl)-1-methyl-N-(2-oxo-2-phenylethyl)-4-(4-pyridinyl)-1H-pyrrole-2-carboxamide] has an IC50 (TNF-α [1]) of 157 nM, an inhibition in vivo at 10 mg/kg (TNF-α [2]; [3]) of 81% and an inhibition in vivo at 10 mg/kg (TNF-α [2]; [4]) of 37%.

For Cn1cc(-c2ccncc2)c(-c2ccc(F)cc2)c1-c1nnco1 [Cpd 35, 4-[4-(4-Fluorophenyl)-1-methyl-5-(1,3,4-oxadiazol-2-yl)-1H-pyrrol-3-yl]pyridine], the IC50 (TNF-α [1]) was 18 nM, the inhibition in vivo at 10 mg/kg (TNF-α [2]; [3]) was 60% and the inhibition in vivo at 10 mg/kg (TNF-α [2]; [4]) was -1%.

Compound Cn1cc(-c2ccncc2)c(-c2ccc(F)cc2)c1-c1ncc(-c2ccccc2)o1 [Cpd 36, 4-[4-(4-Fluorophenyl)-1-methyl-5-(5-phenyl-2-oxazolyl)-1H-pyrrol-3-yl]pyridine] has an IC50 (TNF-α [1]) of 1030 nM, an inhibition in vivo at 10 mg/kg (TNF-α [2]; [3]) of 81% and an inhibition in vivo at 10 mg/kg (TNF-α [2]; [4]) of 35%.

Cn1cc(-c2ccncc2)c(-c2ccc(F)cc2)c1-c1cnco1 [Cpd 41, 4-[4-(4-Fluorophenyl)-1-methyl-5-(5-oxazolyl)-1H-pyrrol-3-yl]pyridine] gave an IC50 (TNF-α [1]) of 59 nM and an inhibition in vivo at 10 mg/kg (TNF-α [2]; [3]) of 53%.

For COC(=O)c1c(-c2ccncc2)c(-c2ccc(F)cc2)c(Br)n1C [Cpd 43, 5-Bromo-4-(4-fluorophenyl)-1-methyl-3-(4-pyridinyl)-1H-pyrrole-2-carboxylic acid methyl ester], the IC50 (TNF-α [1]) was 180 nM and the inhibition in vivo at 10 mg/kg (TNF-α [2]; [3]) was -6%.

In the case of COC(=O)c1c(-c2ccncc2)c(-c2ccc(F)cc2)c(C#CCN2CCOCC2)n1C [Cpd 44, 4-(4-Fluorophenyl)-1-methyl-5-[3-(4-morpholinyl)-1-propynyl]-3-(4-pyridinyl)-1H-pyrrole-2-carboxylic acid methyl ester], the IC50 (TNF-α [1]) is reported as 788 nM and the inhibition in vivo at 10 mg/kg (TNF-α [2]; [4]) is reported as 47%.

COC(=O)c1c(-c2ccc(F)cc2)c(-c2ccncc2)c2n1CCC2C (centres unmarked) [Cpd 47, 6-(4-Fluorophenyl)-2,3-dihydro-1-methyl-7-(4-pyridinyl)-1H-pyrrolizine-5-carboxylic acid methyl ester] showed an IC50 (TNF-α [1]) of 208 nM, an inhibition in vivo at 10 mg/kg (TNF-α [2]; [3]) of 67% and an inhibition in vivo at 10 mg/kg (TNF-α [2]; [4]) of 52%.

Compound CCCc1c(-c2ccnc(SC)n2)c(-c2ccc(F)cc2)cn1CCCN(C)C [Cpd 48] has an IC50 (TNF-α [1]) of 148 nM and an inhibition in vivo at 10 mg/kg (TNF-α [2]; [3]) of -37%.

With CCCc1c(-c2ccnc(N[C@@H](C)c3ccccc3)n2)c(-c2ccc(F)cc2)cn1C(=O)OC(C)(C)C [Cpd 49] the inhibition in vivo at 10 mg/kg (TNF-α [2]; [3]) was -79%.

With CCCC1=C(c2ccnc(N[C@@H](C)c3ccccc3)n2)C(c2ccc(F)cc2)=CC1CCN1CCOCC1 (some centres unmarked) [Cpd 55] the IC50 (TNF-α [1]) was 4 nM and the inhibition in vivo at 10 mg/kg (TNF-α [2]; [3]) was -35%.

CCOC(=O)c1[nH]cc(-c2ccncc2)c1-c1cccc(C(F)(F)F)c1 [Cpd 57] gave an IC50 (TNF-α [1]) of 96 nM and an inhibition in vivo at 10 mg/kg (TNF-α [2]; [3]) of -8%.

Compound Cn1c(N2CCCC2)c(-c2ccncc2)c(-c2ccc(F)cc2)c1C(C)(C)O [Cpd 111] has an IC50 (TNF-α [1]) of 192 nM and an inhibition in vivo at 10 mg/kg (TNF-α [2]; [3]) of 37.7%.

Cn1cc(-c2ccc(F)cc2)c(-c2ccncc2)c1CO [Cpd 112] showed an IC50 (TNF-α [1]) of 169 nM and an inhibition in vivo at 10 mg/kg (TNF-α [2]; [3]) of 65%.

With COC(=O)c1c(-c2ccc(F)cc2)c(-c2ccncc2)c(N2CCC(N)C2)n1C (centres unmarked) [Cpd 113] the IC50 (TNF-α [1]) was 237 nM and the inhibition in vivo at 10 mg/kg (TNF-α [2]; [3]) was 25%.

Work on COC(=O)c1c(-c2ccc(F)cc2)c(-c2ccncc2)c(NCCN(C)C)n1C [Cpd 114] yielded an IC50 (TNF-α [1]) of 98 nM and an inhibition in vivo at 10 mg/kg (TNF-α [2]; [3]) of -43%.

COC(=O)C1CCn2c(I)c(-c3ccncc3)c(-c3ccc(F)cc3)c2C1=O (centres unmarked) [Cpd 136] gave an inhibition in vivo at 10 mg/kg (TNF-α [2]; [3]) of 15%.

COC(=O)c1c(-c2ccc(F)cc2)c(-c2ccncc2)c(-c2ccncc2)n1C [Cpd 137] showed an inhibition in vivo at 10 mg/kg (TNF-α [2]; [3]) of 51%.

With COC(=O)c1c(-c2ccc(F)cc2)c(-c2ccncc2)c(NCCN2CCNCC2)n1C [Cpd 140] the inhibition in vivo at 10 mg/kg (TNF-α [2]; [3]) was 77%.

COC(=O)c1c(-c2ccc(F)cc2)c(-c2ccncc2)cn1CCN(C)C [Cpd 146] showed an inhibition in vivo at 10 mg/kg (TNF-α [2]; [3]) of -32%.

In the case of COC(=O)c1c(-c2ccc(F)cc2)c(-c2ccncc2)c(NCCCN2CCOCC2)n1C [Cpd 149], the inhibition in vivo at 10 mg/kg (TNF-α [2]; [3]) is reported as 64%.

Cn1c(CO)c(-c2ccc(F)cc2)c(-c2ccncc2)c1N1CCN(C(=O)OC(C)(C)C)CC1 [Cpd 151] gave an inhibition in vivo at 10 mg/kg (TNF-α [2]; [3]) of 83%.

CC(=O)N1CCN(c2c(-c3ccncc3)c(-c3ccc(F)cc3)c(-c3nnco3)n2C)CC1 [Cpd 157] was tested, and the inhibition in vivo at 10 mg/kg (TNF-α [2]; [3]) was 19%.

With Cn1cc(-c2ccncc2)c(-c2ccc(F)cc2)c1C#N [Cpd 169] the “Mouse 10 mg/kg % inhib 2 h” value (TNF-α [2]; 2 h, 10 mg/kg) was 49%.

Reference: patent publication US20050043331A1, “Substituted 3-(2,5-disubstituted)pyridyl-4-aryl pyrroles for treating inflammatory diseases” (priority 2002, published 2005)
